# Measurements reported in patent US5916904A, “Antimicrobial agent” (Eisai Co., Ltd., priority 1992, dated 1999).
# How the values were obtained:
# C. pylori EI-925 = test: MIC by agar dilution method, C. pylori clinical isolate EI-925; type: cell-based; conditions: Helicobacter pylori, EI925, 72 h; EI-925, clinical isolate; in vitro, 37° C., pH 7.0, 3 days, microaerophilic; read-out: antibiotic activity (MIC)
# C. pylori EI-429 = test: MIC by agar dilution method, C. pylori clinical isolate EI-429; type: cell-based; conditions: Helicobacter pylori, EI429, 72 h; EI-429, clinical isolate; in vitro, 37° C., pH 7.0, 3 days, microaerophilic; read-out: antibiotic activity (MIC)
# C. pylori EI-397 = test: MIC by agar dilution method, C. pylori clinical isolate EI-397; type: cell-based; conditions: Helicobacter pylori, EI397, 72 h; EI-397, clinical isolate; in vitro, 37° C., pH 7.0, 3 days, microaerophilic; read-out: antibiotic activity (MIC)
# [1] = Acute Toxicological Test in rats; conditions: rat, in vivo, one time
# Procedure: (§1) The compound (I) of the invention was administered Intravenously or orally one time, with a carrier of saline, to Slc:SD rats and Slc:ICR mouse, each being 7 or 8 weeks old, in a group consisting of five males and five females, to determine LD50 values.
# (§2) Acute toxicity of the compound (I) is shown in terms of LD50 in unit of mg/kg.
# C. pylori EI-933 = test: MIC by agar dilution method, C. pylori clinical isolate EI-933; type: cell-based; conditions: Helicobacter pylori, EI933, 72 h; EI-933, clinical isolate; in vitro, 37° C., pH 7.0, 3 days, microaerophilic; read-out: antibiotic activity (MIC)
# C. pylori EI-467 = test: MIC by agar dilution method, C. pylori clinical isolate EI-467; type: cell-based; conditions: Helicobacter pylori, EI467, 72 h; EI-467, clinical isolate; in vitro, 37° C., pH 7.0, 3 days, microaerophilic; read-out: antibiotic activity (MIC)
# C. pylori NCTC11916 = test: MIC by agar dilution method, C. pylori standard strain NCTC11916; type: cell-based; conditions: Helicobacter pylori, 72 h, in vitro, 37° C., pH 7.0, 3 days, microaerophilic, read-out: antibiotic activity (MIC)
# C. pylori = test: antibiotic activity against C. pylori, overall conclusion; type: cell-based; conditions: compared with antibiotic substances / known compounds
# C. pylori NCTC11637 = test: MIC by agar dilution method, C. pylori standard strain NCTC11637; type: cell-based; conditions: Helicobacter pylori, 72 h, in vitro, 37° C., pH 7.0, 3 days, microaerophilic, read-out: antibiotic activity (MIC)
# C. pylori EI-391 = test: MIC by agar dilution method, C. pylori clinical isolate EI-391; type: cell-based; conditions: Helicobacter pylori, EI391, 72 h; EI-391, clinical isolate (resistant); in vitro, 37° C., pH 7.0, 3 days, microaerophilic; read-out: antibiotic activity (MIC)
# C. pylori EI-393 = test: MIC by agar dilution method, C. pylori clinical isolate EI-393; type: cell-based; conditions: Helicobacter pylori, EI393, 72 h; EI-393, clinical isolate; in vitro, 37° C., pH 7.0, 3 days, microaerophilic; read-out: antibiotic activity (MIC)
# C. pylori EI-5 = test: MIC by agar dilution method, C. pylori clinical isolate EI-5; type: cell-based; conditions: Helicobacter pylori, EI5, 72 h; EI-5, clinical isolate; in vitro, 37° C., pH 7.0, 3 days, microaerophilic; read-out: antibiotic activity (MIC)
# C. pylori EI-930 = test: MIC by agar dilution method, C. pylori clinical isolate EI-930; type: cell-based; conditions: Helicobacter pylori, EI930, 72 h; EI-930, clinical isolate; in vitro, 37° C., pH 7.0, 3 days, microaerophilic; read-out: antibiotic activity (MIC)
# C. pylori EI-2 = test: MIC by agar dilution method, C. pylori clinical isolate EI-2; type: cell-based; conditions: Helicobacter pylori, EI2, 72 h; EI-2, clinical isolate; in vitro, 37° C., pH 7.0, 3 days, microaerophilic; read-out: antibiotic activity (MIC)
# C. pylori EI-612 = test: MIC by agar dilution method, C. pylori clinical isolate EI-612; type: cell-based; conditions: Helicobacter pylori, EI612, 72 h; EI-612, clinical isolate; in vitro, 37° C., pH 7.0, 3 days, microaerophilic; read-out: antibiotic activity (MIC)
# C. pylori EI-36 = test: MIC by agar dilution method, C. pylori clinical isolate EI-36; type: cell-based; conditions: Helicobacter pylori, EI36, 72 h; EI-36, clinical isolate; in vitro, 37° C., pH 7.0, 3 days, microaerophilic; read-out: antibiotic activity (MIC)
# [2] = Acute Toxicological Test in mice; conditions: mouse, in vivo, one time
# Procedure: as §1, §2
# C. pylori EI-46 = test: MIC by agar dilution method, C. pylori clinical isolate EI-46; type: cell-based; conditions: Helicobacter pylori, EI46, 72 h; EI-46, clinical isolate (resistant); in vitro, 37° C., pH 7.0, 3 days, microaerophilic; read-out: antibiotic activity (MIC)
# [3] = tested on: C. pylori NCTC-11916, NCTC-11637, PCL-56, CPY-0011-1, KS-13, CLO-1 and CLO-6; conditions: standard strains and clinical isolates; JP-A 3-173817; cited from earlier work
compound,measurement,setting,value
"COCCCOc1ccnc(C[S+]([O-])c2nc3ccccc3[nH]2)c1C (stereo not shown) [(I), 2-[(4-(3-Methoxypropoxy)-3-methylpyridine-2-yl)-methylsulfinyl]-1H-benzimidazole]",MIC,C. pylori EI-925,3.13 µg/mL
same,MIC,C. pylori EI-429,1.56 µg/mL
same,MIC,C. pylori EI-397,3.13 µg/mL
same,LD50,"[1]; iv, female",152 mg/kg
same,LD50,"[1]; iv, male",157 mg/kg
same,LD50,"[1]; po, female",1330 mg/kg
same,LD50,"[1]; po, male",1450 mg/kg
same,MIC,C. pylori EI-933,3.13 µg/mL
same,MIC,C. pylori EI-467,1.56 µg/mL
same,MIC,C. pylori NCTC11916,3.13 µg/mL
same,C. pylori-eradicating activity,C. pylori,the same C. pylori-eradicating activity as an antibiotic substance
same,MIC,C. pylori NCTC11637,3.13 µg/mL
same,MIC,C. pylori EI-391,3.13 µg/mL
same,MIC,C. pylori EI-393,3.13 µg/mL
same,MIC,C. pylori EI-5,3.13 µg/mL
same,MIC,C. pylori EI-930,3.13 µg/mL
same,MIC,C. pylori EI-2,3.13 µg/mL
same,MIC,C. pylori EI-612,0.4 µg/mL
same,MIC,C. pylori EI-36,6.25 µg/mL
same,LD50,"[2]; iv, female",237 mg/kg
same,LD50,"[2]; iv, male",220 mg/kg
same,LD50,"[2]; po, female",1010 mg/kg
same,LD50,"[2]; po, male",1210 mg/kg
same,MIC,C. pylori EI-46,3.13 µg/mL
"Cc1c(OCC(F)(F)C(F)(F)F)ccnc1CSc1nc2ccccc2[nH]1 [JP-A 3-173817 compound (13), 2-[{3-Methyl-4-(2,2,3,3,3-pentafluoropropoxy)pyrid-2-yl}methylthio]-1H-benzimidazole]",antibiotic activity,[3],activity against all the tested strains
"Cc1c(OCC(F)(F)C(F)(F)C(F)F)ccnc1CSc1nc2ccccc2[nH]1 [JP-A 3-173817 compound (14), 2-[{3-Methyl-4-(2,2,3,3,4,4-hexafluorobutoxy)pyrid-2-yl}methylthio]-1H-benzimidazole]",antibiotic activity,[3],activity against all the tested strains
"COCCCOc1ccnc(CSc2nc3ccccc3[nH]2)c1C [(II), 2-[(4-(3-Methoxypropoxy)-3-methylpyridine-2-yl)-methylthio]-1H-benzimidazole]",MIC,C. pylori EI-925,0.4 µg/mL
same,MIC,C. pylori EI-429,1.56 µg/mL
same,MIC,C. pylori EI-397,1.56 µg/mL
same,MIC,C. pylori EI-933,0.8 µg/mL
same,MIC,C. pylori EI-467,1.56 µg/mL
same,MIC,C. pylori NCTC11916,0.2 µg/mL
same,C. pylori-eradicating activity,C. pylori,the same C. pylori-eradicating activity as an antibiotic substance
same,MIC,C. pylori NCTC11637,0.8 µg/mL
same,MIC,C. pylori EI-391,1.56 µg/mL
same,MIC,C. pylori EI-393,1.56 µg/mL
same,MIC,C. pylori EI-5,0.2 µg/mL
same,MIC,C. pylori EI-930,0.4 µg/mL
same,MIC,C. pylori EI-2,0.4 µg/mL
same,MIC,C. pylori EI-612,0.8 µg/mL
same,MIC,C. pylori EI-36,0.4 µg/mL
same,MIC,C. pylori EI-46,0.4 µg/mL
"CC1(C)S[C@@H]2[C@H](NC(=O)[C@H](N)c3ccccc3)C(=O)N2[C@H]1C(=O)O [(VII), ampicillin]",MIC,C. pylori EI-925,0.2 µg/mL
same,MIC,C. pylori EI-429,0.2 µg/mL
same,MIC,C. pylori EI-397,0.1 µg/mL
same,MIC,C. pylori EI-933,0.05 µg/mL
same,MIC,C. pylori EI-467,0.05 µg/mL
same,MIC,C. pylori NCTC11916,0.05 µg/mL
same,MIC,C. pylori NCTC11637,0.4 µg/mL
same,MIC,C. pylori EI-391,0.1 µg/mL
same,MIC,C. pylori EI-393,0.1 µg/mL
same,MIC,C. pylori EI-5,0.4 µg/mL
same,MIC,C. pylori EI-930,0.4 µg/mL
same,MIC,C. pylori EI-2,0.4 µg/mL
same,MIC,C. pylori EI-612,0.05 µg/mL
same,MIC,C. pylori EI-36,0.2 µg/mL
same,MIC,C. pylori EI-46,0.05 µg/mL
"CC1COc2c(N3CCN(C)CC3)c(F)cc3c(=O)c(C(=O)O)cn1c23 (stereo not shown) [(VIII), ofloxacin]",MIC,C. pylori EI-925,0.4 µg/mL
same,MIC,C. pylori EI-429,0.8 µg/mL
same,MIC,C. pylori EI-397,0.8 µg/mL
same,MIC,C. pylori EI-933,0.4 µg/mL
same,MIC,C. pylori EI-467,0.4 µg/mL
same,MIC,C. pylori NCTC11916,0.8 µg/mL
same,MIC,C. pylori NCTC11637,0.8 µg/mL
same,MIC,C. pylori EI-391,25 µg/mL
same,MIC,C. pylori EI-393,0.8 µg/mL
same,MIC,C. pylori EI-5,0.8 µg/mL
same,MIC,C. pylori EI-930,0.8 µg/mL
same,MIC,C. pylori EI-2,0.8 µg/mL
same,MIC,C. pylori EI-612,0.8 µg/mL
same,MIC,C. pylori EI-36,0.8 µg/mL
same,MIC,C. pylori EI-46,3.13 µg/mL
"CC[C@H]1OC(=O)[C@H](C)[C@@H](O[C@H]2C[C@@](C)(OC)[C@@H](O)[C@H](C)O2)[C@H](C)[C@@H](O[C@@H]2O[C@H](C)C[C@H](N(C)C)[C@H]2O)[C@](C)(O)C[C@@H](C)/C(=N\OCOCCOC)[C@H](C)[C@@H](O)[C@]1(C)O [(VI), roxithromycin]",MIC,C. pylori EI-925,0.2 µg/mL
same,MIC,C. pylori EI-429,0.2 µg/mL
same,MIC,C. pylori EI-397,0.2 µg/mL
same,MIC,C. pylori EI-933,0.1 µg/mL
same,MIC,C. pylori EI-467,0.2 µg/mL
same,MIC,C. pylori NCTC11916,0.1 µg/mL
same,MIC,C. pylori NCTC11637,0.4 µg/mL
same,MIC,C. pylori EI-391,50 µg/mL
same,MIC,C. pylori EI-393,0.2 µg/mL
same,MIC,C. pylori EI-5,0.2 µg/mL
same,MIC,C. pylori EI-930,0.4 µg/mL
same,MIC,C. pylori EI-2,0.2 µg/mL
same,MIC,C. pylori EI-612,0.2 µg/mL
same,MIC,C. pylori EI-36,0.2 µg/mL
same,MIC,C. pylori EI-46,> 100 µg/mL
"COc1ccc2[nH]c(SCc3ncc(C)c(OC)c3C)nc2c1 [(IV), 5-Methoxy-2-{(4-methoxy-3,5-dimethyl-2-pyridinyl)methylthio}-1H-benzimidazole]",MIC,C. pylori EI-925,12.5 µg/mL
same,MIC,C. pylori EI-429,25 µg/mL
same,MIC,C. pylori EI-397,25 µg/mL
same,MIC,C. pylori EI-933,12.5 µg/mL
same,MIC,C. pylori EI-467,12.5 µg/mL
same,MIC,C. pylori NCTC11916,12.5 µg/mL
same,MIC,C. pylori NCTC11637,25 µg/mL
same,MIC,C. pylori EI-391,25 µg/mL
same,MIC,C. pylori EI-393,25 µg/mL
same,MIC,C. pylori EI-5,25 µg/mL
same,MIC,C. pylori EI-930,12.5 µg/mL
same,MIC,C. pylori EI-2,25 µg/mL
same,MIC,C. pylori EI-612,12.5 µg/mL
same,MIC,C. pylori EI-36,12.5 µg/mL
same,MIC,C. pylori EI-46,12.5 µg/mL
"Cc1c(OCC(F)(F)F)ccnc1CSc1nc2ccccc2[nH]1 [(V), 2-[{3-Methyl-4-(2,2,2-trifluoroethoxy)pyrid-2-yl}methylthio]-1H-benzimidazole]",MIC,C. pylori EI-925,12.5 µg/mL
same,MIC,C. pylori EI-429,25 µg/mL
same,MIC,C. pylori EI-397,25 µg/mL
same,MIC,C. pylori EI-933,12.5 µg/mL
same,MIC,C. pylori EI-467,12.5 µg/mL
same,MIC,C. pylori NCTC11916,12.5 µg/mL
same,MIC,C. pylori NCTC11637,25 µg/mL
same,MIC,C. pylori EI-391,12.5 µg/mL
same,MIC,C. pylori EI-393,25 µg/mL
same,MIC,C. pylori EI-5,12.5 µg/mL
same,MIC,C. pylori EI-930,12.5 µg/mL
same,MIC,C. pylori EI-2,25 µg/mL
same,MIC,C. pylori EI-612,6.25 µg/mL
same,MIC,C. pylori EI-36,12.5 µg/mL
same,MIC,C. pylori EI-46,12.5 µg/mL
"Cc1c(OCC(F)(F)C(F)F)ccnc1CSc1nc2ccccc2[nH]1 [JP-A 3-173817 compound (12), 2-[{3-Methyl-4-(2,2,3,3-tetrafluoropropoxy)pyrid-2-yl}methylthio]-1H-benzimidazole]",antibiotic activity,[3],activity against all the tested strains
